The assay addresses T1, C5AR1 (Homo sapiens, UniProt P21730).
T1 construct: host or cells: CHO-K1
T1 sequence (P21730 1-350): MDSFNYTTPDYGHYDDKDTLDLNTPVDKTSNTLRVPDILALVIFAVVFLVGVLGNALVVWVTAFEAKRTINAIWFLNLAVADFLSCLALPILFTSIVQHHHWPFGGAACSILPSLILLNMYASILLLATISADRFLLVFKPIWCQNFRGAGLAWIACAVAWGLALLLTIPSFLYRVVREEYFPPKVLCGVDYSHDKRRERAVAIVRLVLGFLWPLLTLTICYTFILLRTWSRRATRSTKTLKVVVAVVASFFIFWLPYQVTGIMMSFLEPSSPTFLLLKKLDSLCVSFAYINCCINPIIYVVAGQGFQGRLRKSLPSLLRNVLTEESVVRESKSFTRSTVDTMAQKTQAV
As to the kind of experiment: In vitro assay: antagonism of C5a-induced beta-arrestin recruitment (PathHunter) in CHO-K1 C5AR1 beta-arrestin cell line. Type of assay: cell-based. As to conditions: antagonistic activity, 1-10 nM C5a agonist, geometric mean where several measurements, read-out: C5aR IC50. The method, then:
5 μl Antagonist at 6-fold end concentration or DMSO control is added to assay medium and subsequently 5 μl 1-10 nM C5a agonist at 6 fold end concentration. Cells are centrifuged for 1 min at 1000 rpm and incubated for 1.5 hour in at 37° C. Plates are equilibrated at room temperature for several minutes before adding 12 μl/well Detection Reagent (PathHunter Detection Kit, DiscoverX, Cat #93-0001). Plates are centrifuged for 1 min at 1000 rpm and incubated for 45 minutes at RT before being measured on a Fluostar Optima, BMG Labtech. IC50 values are calculated from a serial dilution range of antagonist using inhouse software and given in nmol/l.
The calculated IC50 values may fluctuate depending on the daily cellular assay performance. Fluctuations of this kind are known to those skilled in the art. Average IC50 values from several measurements are given as geometric mean values.
With `Cc1cccc(F)c1N1CCC(N2Cc3cn(C4CC4)nc3N(Cc3c(Br)cccc3C(F)(F)F)C2=O)CC1` [Example 213], the IC50 – broadly, the concentration that gives 50% inhibition – came out at 53 nM.

Regarding `Cc1cccc(F)c1N1CCC(N2Cc3c(cnn3CC3CC3)N(Cc3ccccc3C(F)(F)F)C2=O)CC1` [Example 179], the IC50 was determined as 152 nM.

In the case of `CC1c2cn(C3CC3)nc2N(Cc2ccccc2C2CC2)C(=O)N1C1CCN(c2c(F)cccc2Cl)CC1` (single isomer, unassigned) [Example 338], the IC50 amounted to 110 nM.

Take `Cn1cc2c(n1)CN(C1CCN(c3c(F)cccc3C(F)(F)F)CC1)C(=O)N2Cc1ccccc1C(F)(F)F` [Example 271]: the IC50 was determined as 51 nM.

Regarding `Cc1cccc(F)c1N1CCC(N2Cc3c(cnn3CC3(C)CC3)N(Cc3ccccc3C(F)(F)F)C2=O)CC1` [Example 181], the IC50 is 50 nM.

Consider `C#CC(C)(C)n1cc2c(n1)N(Cc1ccccc1C(F)(F)F)C(=O)N(C1CCN(c3c(C)cccc3F)CC1)C2` [Example 160], for which the IC50 amounted to 147 nM.

On to `Cc1cccc(F)c1N1CCC(N2Cc3cn(C(C)C#N)nc3N(Cc3ccccc3C(F)(F)F)C2=O)CC1` (stereo not shown) [Example 78], for which the IC50 is 14 nM.

Turning to `COc1nccc(C)c1N1CCC(N2Cc3cn(C)nc3N(Cc3ncccc3C(F)(F)F)C2=O)CC1` [Example 138], the IC50 came out at 11 nM.

With `Cc1cccc(F)c1N1CCC(N2C(=O)N(Cc3ccccc3C(F)(F)F)c3cnn(COCC[Si](C)(C)C)c3C2C)CC1` (stereo not shown) [Example 237], the IC50 turned out to be 80 nM.

Take `Cc1cccc(F)c1N1CCC(N2Cc3cn(CC(C)F)nc3N(Cc3ccccc3C(F)(F)F)C2=O)CC1` (single isomer, unassigned) [Example 186]: the IC50 was 8 nM.

Regarding `Cc1cccc(F)c1N1CCC(N2Cc3cn(C)nc3N(Cc3ccccc3OCC3CC3)C2=O)CC1` [Example 248], the concentration for half-maximal inhibition (IC50) is 16 nM.

For the compound `Cc1cccc(F)c1N1CCC(N2Cc3cn(CC(F)F)nc3N(Cc3ccccc3C(F)(F)F)C2=O)CC1` [Example 159], the IC50 stood at 8 nM.

As to `Cn1cc2c(n1)N(Cc1ccccc1C(F)(F)F)C(=O)N(C1CCN(c3c(F)cccc3C3CC3)CC1)C2` [Example 303], the IC50 came to 10 nM.

As for `Cc1cccc(F)c1N1CCC(N2Cc3nn(C)cc3N(Cc3ccccc3C(C)C)C2=O)CC1` [Example 260], the IC50 stood at 40 nM.

As to `CC1c2c[nH]nc2N(Cc2ccccc2C(F)(F)F)C(=O)N1C1CCN(c2c(F)cccc2C(F)F)CC1` (single isomer, unassigned) [Example 349], the IC50 came to 918 nM.

On to `CC(c1ccccc1C(F)(F)F)N1C(=O)N(C2CCN(c3c(F)cccc3F)CC2)Cc2cn(C)nc21` (single isomer, unassigned) [Example 290], for which the IC50 was 351 nM.

On to `Cc1cccc(F)c1N1CCC(N2Cc3cn(C4CN(CCF)C4)nc3N(Cc3ccccc3C(F)(F)F)C2=O)CC1` [Example 107], for which the IC50 came to 52 nM.

For `Cc1cccc(F)c1N1CCC(N2Cc3cn(C4CNC4)nc3N(Cc3ccccc3C(F)(F)F)C2=O)CC1` [Example 92], the IC50 is 428 nM.

Regarding `Cc1cccc(F)c1N1CCC(N2Cc3cn(C(C)C(N)=O)nc3N(Cc3ccccc3C(F)(F)F)C2=O)CC1` (stereo not shown) [Example 75], the IC50 came to 171 nM.

On to `Cc1cccc(F)c1N1CCC(N2Cc3cn(CC(C)(C)F)nc3N(Cc3ccccc3C(F)(F)F)C2=O)CC1` [Example 168], for which the IC50 stood at 6 nM.

With `CCOC(=O)N1CC[C@H]1Cn1cc2c(n1)N(Cc1ccccc1C(F)(F)F)C(=O)N(C1CCN(c3c(C)cccc3F)CC1)C2` [Example 124], the IC50 is 13 nM.

With `Cc1cccc(F)c1N1CCC(N2Cc3nn(C)cc3N(Cc3ccccc3C3CC3)C2=O)CC1` [Example 259], the IC50 stood at 49 nM.

In the case of `Cn1cc2c(n1)N(Cc1ccccc1C(F)(F)F)C(=O)N(C1CCN(c3c(F)cccc3Cl)CC1)C2` [Example 272], the IC50 was 18 nM.

On to `Cc1cccc(F)c1N1CCC(N2Cc3nn(COCC[Si](C)(C)C)cc3N(Cc3ncccc3C(F)(F)F)C2=O)CC1` [Example 199], for which the IC50 stood at 32 nM.

Turning to `COc1nccc(C)c1N1CCC(N2Cc3cn(CC4(F)CC4)nc3N(Cc3ccccc3C(F)(F)F)C2=O)CC1` [Example 201], the IC50 came out at 6 nM.

Regarding `Cc1cccc(F)c1N1CCC(N2Cc3cn(CC4CC4(F)F)nc3N(Cc3ccccc3C(F)(F)F)C2=O)CC1` (single isomer, unassigned) [Example 189], the IC50 turned out to be 10 nM.

Consider `Cc1cccc(F)c1N1CCC(N2C(=O)N(Cc3ccccc3C3CC3)c3cn(CC(C)(F)F)nc3C2C)CC1` (single isomer, unassigned) [Example 276], for which the IC50 came to 491 nM.

Consider `Cc1cccc(F)c1N1CCC(N2C(=O)N(Cc3ccccc3C(F)(F)F)c3nn(C)cc3C2C)CC1` (single isomer, unassigned) [Example 220], for which the IC50 came out at 8 nM.

In the case of `CC(c1ccccc1C(F)(F)F)N1C(=O)N(C2CCN(c3c(F)cccc3F)CC2)Cc2cn(C)nc21` (single isomer, unassigned) [Example 291], the IC50 was 116 nM.

Take `COC[C@H](O)Cn1cc2c(n1)N(Cc1ccccc1C(F)(F)F)C(=O)N(C1CCN(c3c(C)cccc3F)CC1)C2` [Example 41]: the half-maximal inhibitory concentration (IC50) is 17 nM.

For `Cc1cccc(F)c1N1CCC(N2C(=O)N(Cc3ccccc3C(F)(F)F)c3nn(C4CCCCO4)cc3C2C)CC1` (stereo not shown) [Example 313], the IC50 was found to be 13 nM.

On to `Cc1cccc(F)c1N1CCC(N2Cc3cn(CCN(C)C(C)C)nc3N(Cc3ccccc3C(F)(F)F)C2=O)CC1` [Example 72], for which the IC50 was 43 nM.

On to `Cc1cccc(F)c1N1CCCC(N2Cc3cn(C)nc3N(Cc3ccccc3C(F)(F)F)C2=O)C1` (single isomer, unassigned) [Example 241], for which the IC50 was found to be 112 nM.

As for `COc1nccc(C(F)F)c1N1CCC(N2C(=O)N(Cc3ccccc3C(F)(F)F)c3nn(C4CC4)cc3C2C)CC1` (single isomer, unassigned) [Example 359], the IC50 worked out at 185 nM.

Regarding `Cc1cccc(F)c1N1CCC(N2Cc3cn(C4CN(c5nnc(C(C)C)o5)C4)nc3N(Cc3ccccc3C(F)(F)F)C2=O)CC1` [Example 143], the IC50 turned out to be 17 nM.

For `Cc1cccc(F)c1N1CCC(N2Cc3cn(CC(C)F)nc3N(Cc3ccccc3C(F)(F)F)C2=O)CC1` (single isomer, unassigned) [Example 185], the IC50 came to 10 nM.

Take `COc1nccc(C(F)F)c1N1CCC(N2C(=O)N(Cc3ccccc3C(F)(F)F)c3nn(C4CC4)cc3C2C)CC1` (single isomer, unassigned) [Example 358]: the IC50 was 12 nM.

Turning to `COc1nccc(C)c1N1CCC(N2Cc3cn(C)nc3N(C(C)c3ccccc3C(F)(F)F)C2=O)CC1` (single isomer, unassigned) [Example 287], the IC50 was found to be 37 nM.

For the compound `Cc1cccc(F)c1N1CCC(N2Cc3nn(C)cc3N(Cc3ncccc3C(F)(F)F)C2=O)CC1` [Example 15], the IC50 was found to be 45 nM.

Regarding `CC1c2cn(C)nc2N(Cc2ccccc2C2CC2)C(=O)N1C1CCN(c2c(F)cccc2C2CC2)CC1` (single isomer, unassigned) [Example 325], the IC50 came to 14 nM.

For `Cc1cccc(F)c1N1CCC(N2C(=O)N(Cc3ccccc3C3CC3)c3cn(CC(C)(F)F)nc3C2C)CC1` (single isomer, unassigned) [Example 277], the IC50 was 56 nM.

Consider `Cc1cccc(F)c1N1CCC(N2Cc3cn(CCN4CCCC4)nc3N(Cc3ccccc3C(F)(F)F)C2=O)CC1` [Example 62], for which the IC50 was 105 nM.

As for `Cc1cccc(F)c1N1CCC(N2Cc3cn(C)nc3N(Cc3c(F)cc(F)cc3OC(C)C)C2=O)CC1` [Example 236], the IC50 was 312 nM.

Take `Cc1cccc(F)c1N1CCC(N2Cc3cn(C)nc3N(Cc3nc(Cl)ccc3C(F)(F)F)C2=O)CC1` [Example 35]: the IC50 came to 9 nM.

Regarding `C=C(C)n1cc2c(n1)CN(C1CCN(c3c(C)cccc3F)CC1)C(=O)N2Cc1ccccc1C(F)(F)F` [Example 192], the IC50 came out at 4 nM.

`Cc1cccc(F)c1N1CCC(N2C(=O)N(Cc3ccccc3C3CC3)c3c[nH]nc3C2C)CC1` (single isomer, unassigned) [Example 275]: the IC50 is 20 nM.

Turning to `Cc1cccc(F)c1N1CCC(N2Cc3cn(C4CN(C(=O)OC5(C(F)(F)F)COC5)C4)nc3N(Cc3ccccc3C(F)(F)F)C2=O)CC1` [Example 140], the IC50 worked out at 18 nM.

Regarding `CC1c2nn(C3CC3)cc2N(Cc2ccccc2C(F)(F)F)C(=O)N1C1CCN(c2c(F)cccc2C(F)F)CC1` (single isomer, unassigned) [Example 330], the IC50 came out at 1420 nM.

For the compound `Cc1cccc(F)c1N1CCC(C)(N2Cc3cn(C)nc3N(Cc3ccccc3C(F)(F)F)C2=O)CC1` [Example 217], the IC50 is 11 nM.

On to `COC(=O)Cn1ncc2c1CN(C1CCN(c3c(C)cccc3F)CC1)C(=O)N2Cc1ccccc1C(F)(F)F` [Example 19], for which the IC50 stood at 637 nM.

For the compound `COc1ncnc(C)c1N1CCC(N2Cc3cn(C)nc3N(Cc3ccccc3C(F)(F)F)C2=O)CC1` [Example 96], the concentration for half-maximal inhibition (IC50) is 492 nM.

In the case of `CCn1cc2c(n1)CN(C1CCN(c3c(C)cccc3F)CC1)C(=O)N2Cc1ccccc1C(F)(F)F` [Example 182], the IC50 amounted to 30 nM.

(Values after patent US11608341B2, “Substituted tetrahydropyrazolo[3,4-d]pyrimidines and tetrahydropyrazolo[4,3-d]pyrimidines as C5A receptor modulators” (Idorsia Pharmaceuticals Ltd., priority 2018, dated 2023).)
